The target of this assay is T1, Sentrin-specific protease 7 (Homo sapiens, UniProt Q9BQF6).
T1 sequence (Q9BQF6 whole entry): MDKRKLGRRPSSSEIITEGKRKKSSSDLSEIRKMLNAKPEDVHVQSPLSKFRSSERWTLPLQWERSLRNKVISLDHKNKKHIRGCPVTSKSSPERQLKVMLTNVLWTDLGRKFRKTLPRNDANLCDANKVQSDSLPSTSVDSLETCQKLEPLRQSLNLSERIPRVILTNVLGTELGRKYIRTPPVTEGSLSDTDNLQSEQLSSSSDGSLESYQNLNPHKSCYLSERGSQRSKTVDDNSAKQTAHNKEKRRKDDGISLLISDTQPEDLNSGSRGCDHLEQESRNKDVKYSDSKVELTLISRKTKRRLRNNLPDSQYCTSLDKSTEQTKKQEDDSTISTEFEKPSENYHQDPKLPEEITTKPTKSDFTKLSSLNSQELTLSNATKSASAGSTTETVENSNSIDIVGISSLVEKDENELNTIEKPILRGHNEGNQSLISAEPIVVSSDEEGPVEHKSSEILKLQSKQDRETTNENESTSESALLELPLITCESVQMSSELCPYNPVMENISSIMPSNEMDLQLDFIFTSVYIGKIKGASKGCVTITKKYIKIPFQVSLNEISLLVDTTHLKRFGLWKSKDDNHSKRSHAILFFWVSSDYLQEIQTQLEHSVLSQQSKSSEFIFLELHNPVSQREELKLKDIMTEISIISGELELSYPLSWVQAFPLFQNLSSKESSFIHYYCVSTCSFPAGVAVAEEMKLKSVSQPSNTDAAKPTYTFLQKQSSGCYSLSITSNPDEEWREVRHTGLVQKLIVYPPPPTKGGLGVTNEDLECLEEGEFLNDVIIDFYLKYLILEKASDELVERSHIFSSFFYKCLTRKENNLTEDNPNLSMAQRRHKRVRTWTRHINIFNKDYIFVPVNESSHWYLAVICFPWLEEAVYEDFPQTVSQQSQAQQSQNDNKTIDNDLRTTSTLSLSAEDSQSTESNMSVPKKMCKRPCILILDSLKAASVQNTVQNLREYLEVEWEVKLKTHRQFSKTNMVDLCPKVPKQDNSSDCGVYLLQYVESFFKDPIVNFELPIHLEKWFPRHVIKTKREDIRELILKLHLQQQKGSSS
The experiment in a line: SENP7 protease inhibitors, SAR follow-up, biochemical, luminescence (AID 504497). Format: functional.

Each structure is given as a SMILES string. Active and inactive are the calls of the source. Rule as the data show it: actives have a measured IC50 and inactives only a lower limit.

A word on the IC50: it is the concentration at which inhibition is half-maximal.

Consider `Oc1cccc(/C=N/Nc2cc(N3CCCC3)nc(N3CCCC3)n2)c1`, for which the IC50 was 49.7 µM (active).

The values above are taken from ChEMBL document CHEMBL1201862, “PubChem BioAssay data set” (2004).
